# Laboratory results: patent US6204293A, “Inhibitors of protein isoprenyl transferases” (University of Pittsburgh, priority 1998, dated 2001)
# Structures can show the parent of a compound that is named as a salt.
# Biological target: T1, Rat brain protein farnesyltransferase (Rattus norvegicus, UniProt Q02293+Q04631)
# T1 construct: Rat brain protein farnesyltransferase activity is measured; from tissue; host or cells: rat brain
# Experiment: % inhibition of farnesylation, scintillation proximity assay with biotin-K Ras B fragment
# Type: biochemical
# Conditions: Table 3; 1 × 10^-7 M
# Procedure, shortened: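 Scintillation proximity read-out of farnesylation, using a biotinylated K Ras B fragment (0.1 mM final) in place of biotin-lamin. Enzyme purified from rat brain; results given as % inhibition.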
# T1 sequence (Q02293 whole entry, one chain of several): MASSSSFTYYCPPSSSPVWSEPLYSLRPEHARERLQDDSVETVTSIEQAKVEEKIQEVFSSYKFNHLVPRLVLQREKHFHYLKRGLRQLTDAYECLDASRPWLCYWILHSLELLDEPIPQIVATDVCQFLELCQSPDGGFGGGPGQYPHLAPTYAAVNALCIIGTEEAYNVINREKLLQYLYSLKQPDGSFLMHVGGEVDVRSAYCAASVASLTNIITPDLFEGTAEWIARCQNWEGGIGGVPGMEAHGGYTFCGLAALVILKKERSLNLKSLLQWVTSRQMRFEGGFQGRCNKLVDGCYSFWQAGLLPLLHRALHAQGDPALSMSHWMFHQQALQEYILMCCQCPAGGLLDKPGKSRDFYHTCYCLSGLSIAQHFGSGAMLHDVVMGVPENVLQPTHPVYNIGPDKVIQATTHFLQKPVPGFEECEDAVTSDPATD
row,Compound,% inhibition at 1 × 10^-7 M [%]
1,"N-[4-(2-adamantan-1-ylpropoxy)-2-(2-methylphenyl)benzoyl]methionine, lithium salt [Example 563]",95

# Same assay, conditions: Table 6; * footnote 0.1 μM (title: 0.1 mM)
row,% inhibition at 0.1 μM (*) [%],Compound
1,69,CCCCC(OCc1ccc(C(=O)N[C@@H](CCSC)C(=O)[O-])c(-c2ccccc2C)c1)C1CCNCC1.[Li+] (some centres unmarked) [Example 1288]

# Same assay, conditions: Table 6; ** footnote 0.01 μM (title: 0.01 mM)
row,% inhibition at 0.01 μM (**) [%],Compound
1,83,CCSCC(CC1CCCCC1)NCc1cc(-c2ccccc2C)c(C(=O)N[C@@H](CCSC)C(=O)O)cc1OC (some centres unmarked) [Example 1337]

# Same assay, conditions: read-out: % inhibition at 0.01 μM (**)
row,Compound,inhibition at 0.01 µM [%]
1,"CSCC[C@H](NC(=O)c1ccc(COCc2ccnnc2)cc1-c1ccccc1C)C(=O)O [Example 1221, N-[4-(Pyridazin-4-ylmethoxymethyl)-2-(2-methylphenyl)benzoyl]methionine lithium salt]",82
2,"CSCC[C@H](NC(=O)c1ccc(COC(CCC2CCCCC2)c2ccns2)cc1-c1ccccc1C)C(=O)O (some centres unmarked) [Example 1223, N-[4-(1-(Isothiaz-5-yl)-3-cyclohexylpropan-1-yloxymethyl)-2-(2-methylphenyl)benzoyl]methionine lithium salt]",91
3,"CSCC[C@H](NC(=O)c1ccc(CO[C@H](COC(C)C)CC2CCCCC2)cc1-c1ccccc1C)C(=O)O [Example 1306, N-[4-[(S)-3-Cyclohexyl-1-(1-methylethoxy)prop-2-yloxymethyl]-2-(2-methylphenyl)benzoyl]methionine Lithium Salt]",85
4,"CCCCOCC(CC1CCCCC1)OCc1ccc(C(=O)N[C@@H](CCSC)C(=O)O)c(-c2ccccc2C)c1 (some centres unmarked) [Example 1308, N-[4-(3-Cyclohexyl-1-butoxyprop-2-yloxymethyl)-2-(2-methylphenyl)benzoyl]methionine Lithium Salt]",91
5,"CSCC[C@H](NC(=O)c1ccc(COC(CCC2CCCCC2)c2ccnnc2)cc1-c1ccccc1C)C(=O)O (some centres unmarked) [Example 1349, N-[4-(1-(Pyridazin-4-yl)-3-cyclohexylpropan-1-yloxymethyl)-2-(2-methylphenyl)benzoyl]methionine lithium salt]",92

# Same assay, conditions: read-out: % inhibition at 0.01 μM (**); Table 6; ** footnote 0.01 μM (title: 0.01 mM)
row,inhibition at 0.01 µM [%],Compound
1,92,"CSCC[C@H](NC(=O)c1ccc(COC(CCC2CCCCC2)c2cnnn2C)cc1-c1ccccc1C)C(=O)O (some centres unmarked) [Example 1225, N-[4-(1-(1-Methyl-1,2,3-triaz-5-yl)-3-cyclohexylpropan-1-yloxymethyl)-2-(2-methylphenyl)benzoyl]methionine lithium salt]"
2,91,"CCCC[C@H](CC1CCCCC1)OCc1ccc(C(=O)N[C@@H](CCSC)C(=O)O)c(-c2ccccc2C)c1 [Example 1303, N-[4-(1-Cyclohexyl-2-hexyloxymethyl)-2-(2-methylphenyl)benzoyl]methionine Lithium Salt]"
3,90,"COC[C@H](CC1CCCCC1)OCc1ccc(C(=O)N[C@@H](CCSC)C(=O)O)c(-c2ccccc2C)c1 [Example 1304, N-[4-(3-Cyclohexyl-1-methoxyprop-2-yloxymethyl)-2-(2-methylphenyl)benzoyl]methionine Lithium Salt]"
4,91,"CCCOC[C@H](CC1CCCCC1)OCc1ccc(C(=O)N[C@@H](CCSC)C(=O)O)c(-c2ccccc2C)c1 [Example 1305, N-[4-(3-Cyclohexyl-1-propoxyprop-2-yloxymethyl)-2-(2-methylphenyl)benzoyl]methionine Lithium Salt]"
5,85,CSCC[C@H](NC(=O)c1ccc(CO[C@H](COC(C)(C)C)CC2CCCCC2)cc1-c1ccccc1C)C(=O)O [Example 1307]
6,90,"CC[S+]([O-])C[C@H](CC1CCCCC1)OCc1ccc(C(=O)N[C@@H](CCSC)C(=O)O)c(-c2ccccc2C)c1 (some centres unmarked) [Example 1310, Lithium Salt]"
7,95,"CCS(=O)(=O)C[C@H](CC1CCCCC1)OCc1ccc(C(=O)N[C@@H](CCSC)C(=O)O)c(-c2ccccc2C)c1 [Example 1311, N-[4-(3-Cyclohexyl-1-ethylsulfonylprop-2-yloxymethyl)-2-(2-methylphenyl)benzoyl]methionine Lithium Salt]"
8,91,"CCCCSC[C@H](CC1CCCCC1)OCc1ccc(C(=O)N[C@@H](CCSC)C(=O)O)c(-c2ccccc2C)c1 [Example 1312, N-[4-(1-Butylthio-3-cyclohexylprop-2-yloxymethyl)-2-(2-methylphenyl)benzoyl]methionine Lithium Salt]"
9,94,CSCC[C@H](NC(=O)c1ccc(CO[C@H](COC2CCC2)CC2CCCCC2)cc1-c1ccccc1C)C(=O)O [Example 1345]
10,81,"CSCC[C@H](NC(=O)c1ccc(CO[C@H](COCC(O)CO)CC2CCCCC2)cc1-c1ccccc1C)C(=O)O (some centres unmarked) [Example 1347, N-[4-(3-Cyclohexyl-1-(2,3-dihydroxy-1-propoxy)-prop-2-yloxymethyl)-2-(2-methylphenyl)benzoyl]methionine, Lithium Salt]"

# The remaining lines, values behind:
row,Compound,inhibition at 0.01 µM [%]
1,"CSCC[C@H](NC(=O)c1ccc(COCc2cc(F)cc(F)c2)cc1-c1ccccc1C)C(=O)O [Example 1226, N-[4-(3,5-trifluorobenzyloxymethyl)-2-(2-methylphenyl)benzoyl]methionine lithium salt]",69
2,"CSCC[C@H](NC(=O)c1ccc(CO[C@@H](CC2CCCCC2)C(=O)N2CCS(=O)(=O)CC2)cc1-c1ccccc1C)C(=O)O [Example 1348, N-[4-(3-cyclohexyl-N-thiomorpholin-S,S-dioxide-4-ylpropion-2-yloxymethyl)-2-(2-methylphenyl)benzoyl]methionine, Lithium Salt]",78

# Same assay, conditions: read-out: % inhibition at 0.1 μM (*)
row,Compound,inhibition at 0.1 µM [%]
1,"CCCOc1cccc(COCc2ccc(C(=O)N[C@@H](CCSC)C(=O)O)c(-c3ccccc3C)c2)c1 [Example 1209, N-[4-(3-(1-Propoxy)benzyloxymethyl)-2-(2-methylphenyl)benzoyl]methionine lithium salt]",87

# Same assay, conditions: read-out: % inhibition at 0.1 μM (*); Table 6; * footnote 0.1 μM (title: 0.1 mM)
row,inhibition at 0.1 µM [%],Compound
1,88,"CSCC[C@H](NC(=O)c1ccc(COC(CCC2CCCCC2)c2ncnn2C)cc1-c1ccccc1C)C(=O)O (some centres unmarked) [Example 1224, N-[4-(1-(1-Methyl-1,2,4-triaz-5-yl)-3-cyclohexylpropan-1-yloxymethyl)-2-(2-methylphenyl)benzoyl]methionine lithium salt]"
2,69,"CCCCC(OCc1ccc(C(=O)N[C@@H](CCSC)C(=O)O)c(-c2ccccc2C)c1)C1CCOCC1 (some centres unmarked) [Example 1282, N-[4-(1-(4-tetrahydropyranyl)pentyloxymethyl-2-(2-methylphenyl)benzoyl]methioninelithium salt]"
3,74,"CSCC[C@H](NC(=O)c1ccc(COC(c2ccccc2)C2CCOCC2)cc1-c1ccccc1C)C(=O)O (some centres unmarked) [Example 1283, N-[4-(1-(4-tetrahydropyranyl)benzyloxymethyl-2-(2-methylphenyl)benzoyl]methioninelithium salt]"
4,96,"CSCC[C@H](NC(=O)c1ccc(CO[C@H](COCCC(C)(C)C)CC2CCCCC2)cc1-c1ccccc1C)C(=O)O [Example 1309, N-[4-(3-Cyclohexyl-1-(3,3-dimethylbut-1-yloxy)prop-2-yloxymethyl)-2-(2-methylphenyl)benzoyl]methionine Lithium Salt]"
5,96,"CSCC[C@H](NC(=O)c1ccc(COC[C@@H](O)CC2CCCCC2)cc1-c1ccccc1C)C(=O)O [Example 1314, N-[4-(3-Cyclohexyl-2-hydroxyprop-1-yloxymethyl)-2-(2-methylphenyl)benzoyl]methionine Lithium Salt]"
6,86,"CCCC[C@@H](COCc1ccc(C(=O)N[C@@H](CCSC)C(=O)O)c(-c2ccccc2C)c1)CC1CCCCC1 [Example 1315, N-[4-(2-Cyclohexylmethylhex-1-yloxymethyl)-2-(2-methylphenyl)benzoyl]methionine Lithium Salt]"
7,78,"COc1ccc(CO[C@H](COCc2ccc(C(=O)N[C@@H](CCSC)C(=O)O)c(-c3ccccc3C)c2)CC2CCCCC2)cc1 [Example 1316, N-[4-(3-Cyclohexyl-2-(4-methoxybenzyloxy)prop-1-yloxymethyl)-2-(2-methylphenyl)benzoyl]methionine Lithium Salt]"
8,94,"CSCC[C@H](NC(=O)c1ccc(CO[C@H](COCC2COC(C)(C)O2)CC2CCCCC2)cc1-c1ccccc1C)C(=O)O (some centres unmarked) [Example 1346, N-[4-(3-Cyclohexyl-1-(2,2-dimethyl-1,3-dioxolan-4-methanoxy)prop-2-yloxymethyl)-2-(2-methylphenyl)benzoyl]methionine, Lithium Salt]"

# Second part, the compound before the results:
row,Compound,inhibition at 0.1 µM [%]
1,"CSCC[C@H](NC(=O)c1ccc(COC(c2ccccc2)C2CCN(S(=O)(=O)c3ccccc3)CC2)cc1-c1ccccc1C)C(=O)O (some centres unmarked) [Example 1252, N-[4-(1-(4-(N-phenylsulfonyl)piperidinyl)benzyloxymethyl-2-(2-methylphenyl)benzoyl]methioninelithium salt]",84
2,"CSCC[C@H](NC(=O)c1ccc(COC(Cc2ccccc2)C2CCN(S(=O)(=O)c3ccccc3)CC2)cc1-c1ccccc1C)C(=O)O (some centres unmarked) [Example 1253, N-[4-(2-phenyl-1-(4-(N-phenylsulfonyl)piperidinyl)ethyloxymethyl-2-(2-methylphenyl)benzoyl]methioninelithium salt]",76
3,"CSCC[C@H](NC(=O)c1ccc(COCCc2cccc(F)c2)cc1-c1ccccc1C)C(=O)O [Example 1274, N-[4-(2-(3-fluorophenyl)ethyloxymethyl-2-(2-methylphenyl)benzoyl]methioninelithium salt]",89
